Measurements from paper PMC12377202, “Design, synthesis, and cytotoxic evaluation of quinazoline-based derivatives as VEGER-2 inhibitors: comparative study against EGFR kinase activity, induction of apoptosis, and molecular docking study” (RSC Advances, 2025).

Tests used:
[1] = test system: IL-6R; test: IL-6R level in HepG-2 cells; format: cell-based, human
Protocol: (§1) All synthesized compounds were tested at their cytotoxic concentrations in HepG-2 cells for analysis of gene expression levels of apoptotic markers caspase-3, caspase-9, TNF-α, and IL-6 proteins, and only two active compounds were tested for BAX and Bcl-2 proteins.
(§2) through Flow cytometric analysis.
(§3) Pellets were collected again and incubated with
(§4) Total RNA from vehicle-treated
(§5) (Thermo Scientific, USA).
(§6) All experiments were performed in […]

[2] = test system: MCF-7; test: MTT anti-proliferative assay, MCF-7; format: cell-based, human; conditions: Homo sapiens, MCF7
[3] = test system: caspase-3; test: Caspase-3 expression level in HepG-2 cells; format: cell-based, human; conditions: for Caspase-3 ± SE: HepG-2, at IC50 concentrations, control 0.460
Protocol: as §1, §2, §3, §4, §5, §6

[4] = test system: caspase-9; test: Caspase-9 expression level in HepG-2 cells; format: cell-based, human; conditions: for Caspase-9 ± SE: HepG-2, at IC50 concentrations, control 11.01
Protocol: as §1, §2, §3, §4, §5, §6

[5] = test system: K-562; test: MTT anti-proliferative assay, K-562; format: cell-based, human; conditions: Homo sapiens, K562
[6] = molecular target: EGFR (Homo sapiens, UniProt P00533); test: EGFR kinase inhibition assay (ELISA kit)
Chain of EGFR (P00533 25-1210): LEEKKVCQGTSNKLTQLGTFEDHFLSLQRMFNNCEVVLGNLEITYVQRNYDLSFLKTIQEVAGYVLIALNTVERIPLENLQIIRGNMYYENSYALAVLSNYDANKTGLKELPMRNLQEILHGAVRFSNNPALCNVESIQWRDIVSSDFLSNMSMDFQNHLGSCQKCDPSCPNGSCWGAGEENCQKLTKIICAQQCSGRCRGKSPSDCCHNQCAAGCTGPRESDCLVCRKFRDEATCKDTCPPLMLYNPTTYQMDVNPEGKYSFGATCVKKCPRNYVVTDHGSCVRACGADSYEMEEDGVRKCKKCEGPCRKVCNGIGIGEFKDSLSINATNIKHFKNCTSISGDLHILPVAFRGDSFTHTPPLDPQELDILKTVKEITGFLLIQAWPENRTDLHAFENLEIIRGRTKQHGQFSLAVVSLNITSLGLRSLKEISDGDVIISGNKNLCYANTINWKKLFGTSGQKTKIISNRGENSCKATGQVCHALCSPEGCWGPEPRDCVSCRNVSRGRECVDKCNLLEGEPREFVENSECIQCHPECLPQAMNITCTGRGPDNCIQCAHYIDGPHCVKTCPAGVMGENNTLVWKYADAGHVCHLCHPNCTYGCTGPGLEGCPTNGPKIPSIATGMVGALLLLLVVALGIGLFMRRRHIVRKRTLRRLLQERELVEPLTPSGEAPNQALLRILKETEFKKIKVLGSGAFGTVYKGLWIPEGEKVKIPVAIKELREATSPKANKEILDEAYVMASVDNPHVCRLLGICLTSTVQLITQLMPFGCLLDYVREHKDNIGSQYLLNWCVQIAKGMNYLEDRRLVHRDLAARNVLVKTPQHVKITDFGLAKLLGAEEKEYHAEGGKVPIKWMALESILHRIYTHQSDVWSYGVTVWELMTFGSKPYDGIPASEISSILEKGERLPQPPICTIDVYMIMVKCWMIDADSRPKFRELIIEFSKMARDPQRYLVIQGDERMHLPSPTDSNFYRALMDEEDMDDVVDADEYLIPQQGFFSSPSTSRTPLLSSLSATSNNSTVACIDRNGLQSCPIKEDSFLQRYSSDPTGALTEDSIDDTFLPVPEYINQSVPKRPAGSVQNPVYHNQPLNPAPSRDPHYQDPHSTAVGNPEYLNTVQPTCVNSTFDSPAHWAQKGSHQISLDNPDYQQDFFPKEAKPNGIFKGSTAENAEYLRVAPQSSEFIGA

[7] = test system: TNF-alpha; test: TNF-alpha level in HepG-2 cells; format: cell-based, human; conditions: control 43.48
Protocol: as §1, §2, §3, §4, §5, §6

[8] = molecular target: VEGFR-2 (Homo sapiens, UniProt P35968); test: In vitro VEGFR-2 inhibitory assay (ELISA kit); conditions: VEGFR-2 kinase
Chain of VEGFR-2 (P35968 20-1356): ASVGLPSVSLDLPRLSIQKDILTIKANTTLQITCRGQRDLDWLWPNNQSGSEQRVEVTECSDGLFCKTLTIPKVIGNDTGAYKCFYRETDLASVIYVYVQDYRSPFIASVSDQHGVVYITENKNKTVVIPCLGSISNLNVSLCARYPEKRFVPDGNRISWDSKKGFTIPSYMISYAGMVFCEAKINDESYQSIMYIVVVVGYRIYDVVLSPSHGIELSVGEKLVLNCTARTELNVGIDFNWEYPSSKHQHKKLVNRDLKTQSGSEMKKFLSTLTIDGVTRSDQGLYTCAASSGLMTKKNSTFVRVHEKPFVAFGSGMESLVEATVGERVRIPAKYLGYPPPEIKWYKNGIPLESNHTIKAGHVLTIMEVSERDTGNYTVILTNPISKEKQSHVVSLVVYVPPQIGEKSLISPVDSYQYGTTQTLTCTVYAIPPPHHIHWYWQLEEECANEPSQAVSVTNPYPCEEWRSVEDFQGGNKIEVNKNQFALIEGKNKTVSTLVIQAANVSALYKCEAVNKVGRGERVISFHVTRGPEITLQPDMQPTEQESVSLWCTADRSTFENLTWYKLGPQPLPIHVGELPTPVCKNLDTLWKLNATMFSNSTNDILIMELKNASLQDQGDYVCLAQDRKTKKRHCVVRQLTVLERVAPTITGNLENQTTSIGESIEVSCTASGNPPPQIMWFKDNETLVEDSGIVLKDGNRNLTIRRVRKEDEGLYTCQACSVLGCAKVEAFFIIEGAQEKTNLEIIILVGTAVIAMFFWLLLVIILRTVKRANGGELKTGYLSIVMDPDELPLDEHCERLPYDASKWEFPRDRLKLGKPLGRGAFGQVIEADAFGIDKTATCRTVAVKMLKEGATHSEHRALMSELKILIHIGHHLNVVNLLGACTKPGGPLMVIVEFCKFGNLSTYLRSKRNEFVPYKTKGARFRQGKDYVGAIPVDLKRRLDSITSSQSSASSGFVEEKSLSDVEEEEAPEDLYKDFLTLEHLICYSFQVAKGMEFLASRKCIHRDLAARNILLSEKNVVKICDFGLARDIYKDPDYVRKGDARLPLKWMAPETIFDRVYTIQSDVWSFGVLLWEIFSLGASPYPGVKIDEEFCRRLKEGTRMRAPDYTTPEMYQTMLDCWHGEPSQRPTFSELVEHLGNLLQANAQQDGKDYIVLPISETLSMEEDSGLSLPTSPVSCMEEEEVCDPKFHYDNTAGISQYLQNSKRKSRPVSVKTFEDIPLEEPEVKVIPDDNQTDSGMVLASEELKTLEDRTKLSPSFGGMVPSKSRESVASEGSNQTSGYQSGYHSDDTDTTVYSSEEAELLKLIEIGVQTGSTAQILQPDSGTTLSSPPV

[9] = test system: HepG-2; test: MTT anti-proliferative assay, HepG-2; format: cell-based, human; conditions: Homo sapiens, HepG2

O=C(Cn1cnc2cc(Cl)ccc2c1=O)Nc1ccccc1Cl [8b, 2-(7-Chloro-4-oxoquinazolin-3(4H)-yl)-N-(2-chlorophenyl)acetamide]
IL-6R ± SE ([1]; HepG-2, at IC50 concentrations, control 44.10): 24.59 ± 0.95 ng/L | IL-6R protein level ([1]; HepG-2, control 44.10%): 24.59 ng/L | IL-6 ±SE ([1]; raw data, HepG2, control 44.10): 11.87 ng/L | viability at 0.195 µmol ([2]; MCF-7, 0.195 umol): 47.8% | cytotoxicity at 0.195 µmol ([2]; MCF-7, 0.195 umol, read-out: Toxicity %): 52.2% | viability at 0.391 µmol ([2]; MCF-7, 0.391 umol): 28.6% | cytotoxicity at 0.391 µmol ([2]; MCF-7, 0.391 umol, read-out: Toxicity %): 71.4% | viability at 0.781 µmol ([2]; MCF-7, 0.781 umol): 14.1% | cytotoxicity at 0.781 µmol ([2]; MCF-7, 0.781 umol, read-out: Toxicity %): 85.9% | viability at 1.563 µmol ([2]; MCF-7, 1.563 umol): 12% | cytotoxicity at 1.563 µmol ([2]; MCF-7, 1.563 umol, read-out: Toxicity %): 88% | viability at 3.125 µmol ([2]; MCF-7, 3.125 umol): 9.81% | cytotoxicity at 3.125 µmol ([2]; MCF-7, 3.125 umol, read-out: Toxicity %): 90.2% | viability at 6.25 µmol ([2]; MCF-7, 6.25 umol): 8.27% | cytotoxicity at 6.25 µmol ([2]; MCF-7, 6.25 umol, read-out: Toxicity %): 91.7% | viability at 12.5 µmol ([2]; MCF-7, 12.5 umol): 6.86% | cytotoxicity at 12.5 µmol ([2]; MCF-7, 12.5 umol, read-out: Toxicity %): 93.1% | viability at 25 µmol ([2]; MCF-7, 25 umol): 6.68% | cytotoxicity at 25 µmol ([2]; MCF-7, 25 umol, read-out: Toxicity %): 93.3% | IC50 ([2]; MTT, MCF-7, read-out: Cytotoxicity against cancer cells IC50 MCF-7): 191 ± 4 nM | Caspase-3 ± SE [3]: 1.10 ± 0.046 ng/mL | Caspase-3 ± SE ([3]; listed as R3): 1.10 ng/mL | caspase-3 expression level, fold increase ([3]; HepG-2, vs control cells): 2.40 fold | Caspase-9 ± SE [4]: 83.31 ± 1.28 ng/L | Caspase-9 ± SE ([4]; listed as R3): 83.31 ng/L | caspase-9 expression level, fold increase ([4]; HepG-2, vs control cells): 7.5 fold | viability at 0.195 µmol ([5]; K-562, 0.195 umol): 82.7% | cytotoxicity at 0.195 µmol ([5]; K-562, 0.195 umol, read-out: Toxicity %): 17.3% | viability at 0.391 µmol ([5]; K-562, 0.391 umol): 55.2% | cytotoxicity at 0.391 µmol ([5]; K-562, 0.391 umol, read-out: Toxicity %): 44.8% | viability at 0.781 µmol ([5]; K-562, 0.781 umol): 27.4% | cytotoxicity at 0.781 µmol ([5]; K-562, 0.781 umol, read-out: Toxicity %): 72.6% | viability at 1.563 µmol ([5]; K-562, 1.563 umol): 16.4% | cytotoxicity at 1.563 µmol ([5]; K-562, 1.563 umol, read-out: Toxicity %): 83.6% | viability at 3.125 µmol ([5]; K-562, 3.125 umol): 11.1% | cytotoxicity at 3.125 µmol ([5]; K-562, 3.125 umol, read-out: Toxicity %): 88.9% | viability at 6.25 µmol ([5]; K-562, 6.25 umol): 8.54% | cytotoxicity at 6.25 µmol ([5]; K-562, 6.25 umol, read-out: Toxicity %): 91.5% | viability at 12.5 µmol ([5]; K-562, 12.5 umol): 7.8% | cytotoxicity at 12.5 µmol ([5]; K-562, 12.5 umol, read-out: Toxicity %): 92.2% | viability at 25 µmol ([5]; K-562, 25 umol): 6.69% | cytotoxicity at 25 µmol ([5]; K-562, 25 umol, read-out: Toxicity %): 93.3% | IC50 ([5]; MTT, K-562, read-out: Cytotoxicity against cancer cells IC50 K-562): 464.2 ± 3 nM | Activity % ([6]; HepG2): 16.278% | Inhibition % ([6]; HepG2): 83.722% | Activity % ([6]; K-562): 17.305% | Inhibition % ([6]; K-562): 82.695% | Activity % ([6]; MCF7): 18.736% | Inhibition % ([6]; MCF7): 81.264% | TNF-alpha ±SE ([7]; HepG-2, at IC50 concentrations): 23.47 ± 0.56 ng/L | TNF-alpha ±SE ([7]; raw data, HepG2): 16.86 ng/L | Activity % ([8]; HepG2): 11.673% | Inhibition % ([8]; HepG2): 88.327% | Activity % ([8]; K-562): 21.332% | Inhibition % ([8]; K-562): 78.668% | Activity % ([8]; MCF7): 19.260% | Inhibition % ([8]; MCF7): 80.740% | viability at 0.195 µg/mL ([9]; HepG-2, 0.195 ug/ml): 52.9% | cytotoxicity at 0.195 µg/mL ([9]; HepG-2, 0.195 ug/ml, read-out: Toxicity %): 47.1% | viability at 0.391 µg/mL ([9]; HepG-2, 0.391 ug/ml): 33.3% | cytotoxicity at 0.391 µg/mL ([9]; HepG-2, 0.391 ug/ml, read-out: Toxicity %): 66.7% | viability at 0.781 µg/mL ([9]; HepG-2, 0.781 ug/ml): 27.5% | cytotoxicity at 0.781 µg/mL ([9]; HepG-2, 0.781 ug/ml, read-out: Toxicity %): 72.5% | viability at 1.563 µg/mL ([9]; HepG-2, 1.563 ug/ml): 13.7% | cytotoxicity at 1.563 µg/mL ([9]; HepG-2, 1.563 ug/ml, read-out: Toxicity %): 86.3% | viability at 3.125 µg/mL ([9]; HepG-2, 3.125 ug/ml): 9.67% | cytotoxicity at 3.125 µg/mL ([9]; HepG-2, 3.125 ug/ml, read-out: Toxicity %): 90.3% | viability at 6.25 µg/mL ([9]; HepG-2, 6.25 ug/ml): 8.39% | cytotoxicity at 6.25 µg/mL ([9]; HepG-2, 6.25 ug/ml, read-out: Toxicity %): 91.6% | viability at 12.5 µg/mL ([9]; HepG-2, 12.5 ug/ml): 7.03% | cytotoxicity at 12.5 µg/mL ([9]; HepG-2, 12.5 ug/ml, read-out: Toxicity %): 93% | viability at 25 µg/mL ([9]; HepG-2, 25 ug/ml): 5.68% | cytotoxicity at 25 µg/mL ([9]; HepG-2, 25 ug/ml, read-out: Toxicity %): 94.3% | IC50 ([9]; MTT, HepG-2, read-out: Cytotoxicity against cancer cells IC50 HepG-2): 224.2 ± 1.7 nM
